In patent US20220031654A1, “Standardized Bioflavonoid Composition for Regulation of Homeostasis of Host Defense Mechanism” (priority 2020, published 2022):
“And” between values parts separate entries of the source, which are not always exact repeats. Equal values may be shown once.

Assays:
IL-1β = test: LPS-induced acute lung injury, serum IL-1β ELISA; assay type: in vivo, Sprague Dawley rats; settings: UP446 250 mg/kg; SB 500 mg/kg
Protocol: The presence of IL-10 in undiluted rat serum was measured using the Rat IL-10 Quantikine ELISA kit from RandD Systems (product #: RLB00) as follows: undiluted serum was added to a microplate coated with IL-1β antibody. […] The washing was repeated, and enzyme substrate was added to the plate.

[1] = test system: LPS-induced endotoxemia and sepsis; test: LPS-induced sepsis model, composition versus its constituents, Colby synergy; assay type: in vivo, CD-1 mice; settings: for Mortality rate / Survival rate: SB 500, UP894-II 250, RM405 200, RM406 50 mg/kg
Protocol: On the 8th day, mice were injected intraperitoneally (i.p.) with 25 mg/kg LPS dissolved in PBS at 10 mL/kg. Mice in the UP894-II-treated group received a daily dose of UP894-II at 250 mg/kg. All mice continued to receive the treatment daily for the duration of study, which was completed on the 6th day post LPS injection. Following a median lethal dose of LPS (25 mg/kg) by i.p. administration, animals are expected to develop sepsis within a few hours. If untreated, mice would start to die within 24 hours. Animals were observed hourly. In the current study, we monitored the mice for 6 days after LPS injection.
For the blending of these plant extracts to have unexpected synergy, the observed inhibition needs to be greater than the calculated value.
The survival rate was calculated as: 100-[(deceased mice/total number of mice)×100]%. *p≤0.05

[2] = test system: LPS-induced endotoxemia and sepsis; test: LPS-induced sepsis model, survival (UP446 study); assay type: in vivo, CD-1 mice; settings: UP446 250 mg/kg, Sodium Butyrate 500 mg/kg oral
Protocol: CD-1 mice and Sprague Dawley rats were purchased from a USDA approved vendor. Eight weeks old male CD-1 mice and SD rats were purchased form Charles River Laboratories, Inc. (Wilmington, Mass.). Animals were acclimated upon arrival and used for the study. They were housed in a temperature-controlled room (71-72° F.) on a 12-hour light-dark cycle and provided with feed and water ad libitum.
This model used survival rate of animals as the end point measurement (Wang et al., 1999). Lipopolysaccharide (LPS) is an integral component of the outer membrane of gram-negative bacteria and a major contributing factor in the initiation of a generalized inflammatory process that may lead to endotoxin shock. It is a state mediated principally by macrophages/monocytes and is attributed to excessive production of several early phase cytokines such as TNF-α, IL-1, IL-6 and gamma interferon (IFN-γ) as well as a late-stage mediator, HMGB1. Following a median lethal dose of LPS (25 mg/kg) administration dissolved in phosphate-buffered saline (PBS; Lifeline, Lot #07641), animals develop endotoxemia and HMGB1 would be detected in the serum at 8 hours and reach to a peak and plateau levels from 16 to 32 hours after LPS. […] In the current study, we monitored the mice for 4 days after LPS injection. […]
The survival rate was calculated as: 100-[(deceased mice/total number of mice)×100]%.

TNF-α = test: LPS-induced acute lung injury, serum TNF-α ELISA; assay type: in vivo, Sprague Dawley rats; settings: UP446 250 mg/kg; SB 500 mg/kg
Protocol: The presence of TNF-α in undiluted rat serum was measured using the rat TNF-α Quantikine ELISA kit from RandD Systems (product #: RTA00) as follows: undiluted serum was added to a microplate coated with TNF-α antibody. […] The washing was repeated, and enzyme substrate was added to the plate.

MIP-2/CINC-3 = test: LPS-induced acute lung injury, lung homogenate MIP-2/CINC-3 ELISA; settings: UP446 250 mg/kg; SB 500 mg/kg
Protocol: (§1) In this study, we treated Sprague Dawley rats with the test materials orally for 7 days before model induction with LPS. On the 8th day, an hour after oral treatment, LPS was instilled intratracheally (i.t.) at 10 mg/kg dissolved in 0.1 mL/100 g PBS to each rat. The normal control rats received the same volume i.t. of PBS only.
We sacrificed surviving animals 24 hours after intratracheal LPS administration. At necropsy, the bronchoalveolar lavage (BAL) was collected by intratracheal injection of 1.5 mL PBS into the right lobe of the lung, followed by a gentle aspiration at least 3 times. Pooled, recovered fluid was centrifuged at 1,500 rpm for 10 min at 4° C., and was used to measure cytokines (e.g. IL-6) and pulmonary protein levels. This same right lobe was collected for tissue homogenization from each rat for MIP-2/CINC-3 activity analysis.
The plate was subjected to 5 washes before an enzyme-linked polyclonal CINC-3 was added and allowed to bind for 2 hours. The wells were washed another 5 times before a substrate solution was added to the wells and the enzymatic reaction was allowed to commence for 30 minutes at room temperature protected from light. […] The absorbance of each well was read at 450 nm (with a 580 nm correction) and compared to a standard curve of CINC-3 in order to approximate the amount of CINC-3 in each rat lung homogenate sample.

[3] = test system: LPS-induced acute lung injury; test: LPS-induced acute lung injury, lung histopathology (H&E); assay type: in vivo, Sprague Dawley rats
Protocol: The severity of lung damage as a result of intratracheal LPS was assessed using HandE-stained lung tissue. The left lobe of the lung was used for the histopathology analysis.

CRP = settings: UP446 250 mg/kg; SB 500 mg/kg
Protocol: as §1
We sacrificed surviving animals 24 hours after intratracheal LPS administration. At necropsy, the bronchoalveolar lavage (BAL) was collected by intratracheal injection of 1.5 mL PBS into the right lobe of the lung, followed by a gentle aspiration at least 3 times. Pooled, recovered fluid was centrifuged at 1,500 rpm for 10 min at 4° C., and was used to measure cytokines (e.g. IL-6) and pulmonary protein levels.
The presence of CRP in rat BAL diluted 1:1,000 was measured using the C-Reactive Protein (PTX1) Rat ELISA kit from Abcam (product #: ab108827) as follows: 1:1,000 diluted BAL was added to a microplate coated with CRP antibody. After 2 hours on a plate shaker at room temperature, CRP in BAL was bound to the plate and the plate was thoroughly washed. […] After developing for 10 minutes at room temperature, a stop solution was added, and the absorbance was read at 450 nm. The concentration of CRP was calculated based on the absorbance readings of an CRP standard curve.

BAL total protein = test: Hyperoxia plus PA infection, total protein in lung lavage fluid; settings: RES 50 mg/kg, UP446 250 mg/kg; >90% oxygen 48 hours, 24 hours after PA
Protocol: To investigate the effects of regulating natural host defense homeostasis, mice were treated with the bioflavonoid composition, UP446, at 250 mg/kg orally for seven days prior to being exposed to >90% oxygen for 48 hours (with continued UP446 treatment) before being inoculated with microbial Pseudomonas aeruginosa (PA). Mice were euthanized 24 hours after bacterial inoculation, the lungs were lavaged, and total protein content was determined from the lung lavage fluid.

Pseudomonas aeruginosa [4] = test: Hyperoxia plus PA infection, bacterial load in the airways; settings: RES 50 mg/kg, UP446 250 mg/kg; hyperoxia and PA
Protocol: To investigate the effects of regulating natural host defense homeostasis, mice were treated with the bioflavonoid composition, UP446, at 250 mg/kg orally for seven days prior to being exposed to >90% oxygen for 48 hours (with continued UP446 treatment) before being inoculated with microbial Pseudomonas aeruginosa (PA).

HMGB1 = test: Hyperoxia plus PA infection, extracellular HMGB1 in lung lavage fluids; assay type: in vivo, mice; settings: RES 50 mg/kg, UP446 250 mg/kg
Source text: Accumulation of extracellular HMGB1 in the airways can compromise innate immunity, leading to an impaired ability to clear invading pathogens and apoptotic neutrophils. This can subsequently cause acute respiratory tract infections, lung injury and even death (Entezari et al., 2012; Patel et al., 2013). To determine whether UP446-attenuated acute lung injury in bacterially infected mice exposed to hyperoxia is due to its impact on the accumulation of extracellular HMGB1 in the airways, the levels of HMGB1 were measured in the lung lavage fluids. As shown previously, prolonged exposure of these mice to hyperoxia followed by microbial infection increased the accumulation of HMGB1 in the airways. […] This elevation can be reduced by pretreatment with either resveratrol (RES) or UP446. […] This correlates with the significant enhanced ability of UP446 to improve host defense mechanisms against microbial infection in the respiratory system.

Pseudomonas aeruginosa [5] = test: Hyperoxia plus PA infection, bacterial load in lung homogenate; assay type: in vivo, mice; settings: RES 50 mg/kg, UP446 250 mg/kg; hyperoxia and PA
[6] = test system: cox-2 gene transcription in human colon cancer DLD-1 cells; settings: Mutoh et al. 2000, read-out: IC50, suppression of cox-2 gene transcription; cited from earlier work
COX-1 = settings: (+)-catechin isolated from the bark of Ceiba pentandra; Noreen et al. 1998; read-out: IC50, COX-1 inhibition; cited from earlier work
[7] = test system: prostaglandin endoperoxide synthase; settings: Kalkbrenner et al. 1992; read-out: IC50, inhibition of prostaglandin endoperoxide synthase; cited from earlier work
COX-2 = settings: commercially available pure (+)-catechin; Noreen et al. 1998; cited from earlier work
[8] = 144 hr post LPS (end of observation)

Structure (SMILES): CCCC(=O)[O-].[Na+] [Sodium Butyrate]
- reduction in serum IL-1β level (printed IL-10 for UP446) (IL-1β): 65.3%
- Mortality rate ([1]; 24 hr post LPS): 15.38%
- Survival rate ([1]; 24 hr post LPS): 84.6%
- Mortality rate ([1]; 36 hr post LPS): 46.15%
- Survival rate ([1]; 36 hr post LPS, listed as SB): 53.9% and 53.8%
- Mortality rate ([1]; 48 hr post LPS): 53.85%
- Survival rate ([1]; 48 hr post LPS): 46.2%
- Mortality rate ([1]; 60 hr post LPS): 61.54%
- Survival rate ([1]; 60 hr post LPS): 38.5%
- Mortality rate ([1]; 72 hr post LPS): 61.54%
- Survival rate ([1]; 72 hr post LPS, listed as SB): 38.5%
- Mortality rate ([1]; 96 hr post LPS): 69.23%
- Survival rate ([1]; 96 hr post LPS): 30.8%
- Mortality rate ([1]; 120 hr post LPS): 69.23%
- Survival rate ([1]; 120 hr post LPS): 30.8%
- Mortality rate [1, 8]: 69.23%
- Survival rate [1, 8]: 30.8%
- Mortality rate [1]: 0.00%
- Survival rate [1]: 100.0%
- Deceased (total) ([1]; up to 144 hours post LPS, N=13): 9
- Survived (total) ([1]; up to 144 hours post LPS, N=13): 4
- Survival Rate (%) after 82 hr [2]: 50%
- reduction in serum TNF-α level against the vehicle control (TNF-α): 67.9%
- reduction in lung homogenate CINC-3 level vs vehicle (MIP-2/CINC-3): 17.7%
- changes in the histopathology evaluation relative to vehicle ([3]; SB 500 mg/kg, UP446 low-dose 125 mg/kg): minimal changes
- Overall Lung Damage Severity ([3]; Score 0-4, UP446 high dose 250 mg/kg, Sodium Butyrate 500 mg/kg): 3.05 ± 0.42
- Infiltration of PMN cell ([3]; scores 0-4, UP446 high dose 250 mg/kg, Sodium Butyrate 500 mg/kg): 2.75 ± 0.78
- reduction of BAL CRP level relative to vehicle (CRP): moderate reduction in CRP level without statistical significance

Structure (SMILES): Oc1ccc(C=Cc2cc(O)cc(O)c2)cc1 [RES, resveratrol]
- BAL Total protein content (Mean ± SE) (BAL total protein): 526.0 ± 15.5 µg/mL
- bacterial load in the airways (Mean ± SD) (Pseudomonas aeruginosa [4]): 2.4 ± 0.6 ×10^5 CFU/mL
- reduction in the level of HMGB1 expression vs vehicle-treated hyperoxia and infection (HMGB1): 74.9%
- HMGB1 expression in airways (Mean ± SD) (HMGB1; densitometry arbitrary unit, hyperoxia and PA): 29.2 ± 16.5 AU
- bacterial load in lung homogenate (Mean ± SD) (Pseudomonas aeruginosa [5]): 0.02 ± 0.02 ×10^5 CFU/mL

Structure (SMILES): Oc1cc(O)c2c(c1)OC(c1ccc(O)c(O)c1)C(O)C2 (stereo not shown) [Catechin]
- IC50 [6]: 415 µM
- IC50 (COX-1): 80 µM
- IC50 [7]: 40 µM
- selectivity for COX-2 (COX-2): no selectivity for COX-2
